As a reminder, the ED50 is the dose that gives a 50% effect, or the effect in half of the subjects.

Assay [1] is described as follows: Maximal Electroshock Seizure Test. In kind it is in vivo, male Carworth Farms #1 mice or Sprague-Dawley rats.
Assay [2] is described as follows: Subcutaneous Pentylenetetrazol (Metrazol) Seizure Threshold Test. In kind it is in vivo, male Carworth Farms #1 mice or Sprague-Dawley rats. The following applies: for Lowest effective dose, Metrazol (Phase I): Table X; for Anticonvulsant activity, Metrazol (Phase I): Table IV; for Protection against Metrazol-induced seizures (in words): running text.
Setting [3] is: Table X, IP, challenge time 30 min.
Setting [4] is: Table X, IP, challenge time 4 hrs.
The mark [5] stands for this setting: Table X, SC, challenge time 30 min.
[6] abbreviates: Table X, SC, challenge time 4 hrs.

On to `CC(=O)Oc1ccccc1C(=O)[O-].CC(=O)Oc1ccccc1C(=O)[O-].[Cu+2].c1ccncc1.c1ccncc1` [Cu(II)(acetylsalicylate)2 (pyridine)2], for which the “Anticonvulsant activity, Maximal Electroshock (Phase I)” value in assay [1] (Table I, SC) is reported as “I”.

Regarding Cu(II)5-ethyl-5-phenylhydantoin(CH3 OH), the “Lowest effective dose, Metrazol (Phase I)” value in assay [2] (IP, challenge time 30 min) is on record as 100 milligrams per kilogram of bod; in assay [2] (IP, challenge time 4 hrs), “I”; in assay [2] (SC, challenge time 30 min), 100 milligrams per kilogram of bod; in assay [2] (SC, challenge time 4 hrs) it was 300 milligrams per kilogram of bod. The “Lowest effective dose, MES (Phase I)” value in assay [1] (setting [3]) is listed as 100 milligrams per kilogram of bod; in assay [1] (setting [4]), 100 milligrams per kilogram of bod; in assay [1] (setting [5]), 100 milligrams per kilogram of bod; in assay [1] (setting [6]), 30 milligrams per kilogram of bod.

`[Cu+2].[O-]c1ccccc1C=NCCN=Cc1ccccc1[O-]` [Cu(II) bissalicylatoethyleneimine]: the “Anticonvulsant activity, Metrazol (Phase I)” value in assay [2] (SC) is recorded as “I”. The “Anticonvulsant activity, Maximal Electroshock (Phase I)” value in assay [1] (Table IV, IP) is “I”; in assay [1] (Table IV, SC), “I”.

`C[C@H](N)C(=O)[O-].C[C@H](N)C(=O)[O-].[Cu+2]` [Cu(II)(L-alaninate)2]: the “Protection against Metrazol-induced seizures (in words)” value (from here on “Protection”) in assay [2] was “effective against the Metrazol-induced seizure at all doses studied and at both time intervals, 30 minutes and 4 hours”.

Turning to `CCC1(c2ccccc2)C(=O)[N-]C(=O)NC1=O.CCC1(c2ccccc2)C(=O)[N-]C(=O)NC1=O.[Cu+2].c1c[nH]cn1.c1c[nH]cn1` [Cu(II)(Phenobarbital)2 (imidazole)2], the “Lowest effective dose, Metrazol (Phase I)” value was 300 milligrams per kilogram of bod in assay [2] (IP, challenge time 30 min); 30 milligrams per kilogram of bod in assay [2] (IP, challenge time 4 hrs); 100 milligrams per kilogram of bod in assay [2] (SC, challenge time 30 min); 100 milligrams per kilogram of bod in assay [2] (SC, challenge time 4 hrs). For the same compound, the “Lowest effective dose, MES (Phase I)” value in assay [1] (setting [3]) is 100 milligrams per kilogram of bod; in assay [1] (setting [4]) it was 100 milligrams per kilogram of bod; in assay [1] (setting [5]) it was “I”; in assay [1] (setting [6]), 100 milligrams per kilogram of bod.

Turning to `C[C@@H](O)[C@H](N)C(=O)[O-].C[C@@H](O)[C@H](N)C(=O)[O-].O.[Cu+2]` [Cu(II)(L-threoninate)2 H2 O], the “Protection” value in assay [2] is “effective against the Metrazol-induced seizure at all doses studied and at both time intervals, 30 minutes and 4 hours”.

Turning to “Cu(II)n (Phenobarbital)n (H2 O)2n (H2 O)3n”, the “Lowest effective dose, Metrazol (Phase I)” value was 30 milligrams per kilogram of bod in assay [2] (SC, challenge time 30 min) and 30 milligrams per kilogram of bod in assay [2] (SC, challenge time 4 hrs). Further, the “Lowest effective dose, MES (Phase I)” value in assay [1] (setting [5]) was 100 milligrams per kilogram of bod; in assay [1] (setting [6]) it was 30 milligrams per kilogram of bod.

For `CC(=O)Oc1ccccc1C(=O)O` [Aspirin, acetylsalicylate, reference compound], the “Anticonvulsant activity, Metrazol” value in assay [2] (Table VI, IP) was “I”. In addition, the “Anticonvulsant activity, Maximal Electroshock” value in assay [1] (Table VI, IP) is recorded as “I”.

As to `C[C@@H](O)[C@H](N)C(=O)[O-].N[C@@H](CO)C(=O)[O-].[Cu+2]` [Cu(II)(L-threoninate)(L-serinate)], the “Protection” value in assay [2] is “effective against the Metrazol-induced seizure at all doses studied and at both time intervals, 30 minutes and 4 hours”.

Turning to Cu(II) Salicylidene-L-histidinate, the “Anticonvulsant activity, Metrazol (Phase I)” value in assay [2] (IP) was “I”. The “Anticonvulsant activity, Maximal Electroshock (Phase I)” value in assay [1] (Table IV, IP) is on record as “I”; in assay [1] (Table IV, SC), “I”.

On to `CCC1(CCC(C)C)C(=O)[N-]C(=O)NC1=O.CCC1(CCC(C)C)C(=O)[N-]C(=O)NC1=O.O.O.[Cu+2]` [Cu(II)(Amobarbital)2 (H2 O)2], for which the “Lowest effective dose, Metrazol (Phase I)” value in assay [2] (IP, challenge time 30 min) is reported as 100 milligrams per kilogram of bod; in assay [2] (IP, challenge time 4 hrs) it was “I”; in assay [2] (SC, challenge time 30 min), 100 milligrams per kilogram of bod; in assay [2] (SC, challenge time 4 hrs), “I”. The “Lowest effective dose, MES (Phase I)” value in assay [1] (setting [3]) is 100 milligrams per kilogram of bod; in assay [1] (setting [4]), “I”; in assay [1] (setting [5]) it was 300 milligrams per kilogram of bod; in assay [1] (setting [6]) it was “I”.

For `CCCC(C)C1(CC)C(=O)[N-]C(=S)NC1=O.CCCC(C)C1(CC)C(=O)[N-]C(=S)NC1=O.[Cu+2]` (centres unmarked) [Cu(II)(N--thiopental)2 (H2 O)2.5], the “Lowest effective dose, Metrazol (Phase I)” value is “I” in assay [2] (IP, challenge time 30 min); “I” in assay [2] (IP, challenge time 4 hrs); “I” in assay [2] (SC, challenge time 30 min); 30 milligrams per kilogram of bod in assay [2] (SC, challenge time 4 hrs). Besides, the “Lowest effective dose, MES (Phase I)” value in assay [1] (setting [3]), in assay [1] (setting [4]), in assay [1] (setting [5]) and in assay [1] (setting [6]) was “I” throughout.

Turning to “Cu(II)5-ethyl-5-phenylhydantoin(H2 O)2.5”, the “Lowest effective dose, Metrazol (Phase I)” value in assay [2] (IP, challenge time 30 min) is 300 milligrams per kilogram of bod; in assay [2] (IP, challenge time 4 hrs) it was 100 milligrams per kilogram of bod; in assay [2] (SC, challenge time 30 min), 30 milligrams per kilogram of bod; in assay [2] (SC, challenge time 4 hrs) it was 100 milligrams per kilogram of bod. The “Lowest effective dose, MES (Phase I)” value in assay [1] (setting [3]) is listed as 100 milligrams per kilogram of bod; in assay [1] (setting [4]), 100 milligrams per kilogram of bod; in assay [1] (setting [5]), 100 milligrams per kilogram of bod; in assay [1] (setting [6]), 30 milligrams per kilogram of bod.

Consider `CC(C)[C@H](N)C(=O)[O-].CC(C)[C@H](N)C(=O)[O-].O.[Cu+2]` [Cu(II)(L-valinate)2 H2 O], for which the “Protection” value in assay [2] is “effective against the Metrazol-induced seizure at all doses studied and at both time intervals, 30 minutes and 4 hours”.

On to `CC(=O)Oc1ccccc1C(=O)[O-].CC(=O)Oc1ccccc1C(=O)[O-].CS(C)=O.CS(C)=O.[Cu+2]` [Cu(II)(acetylsalicylate)2 (dimethylsulfoxide)2], for which the “Anticonvulsant activity, Maximal Electroshock (Phase I)” value in assay [1] (Table I, SC) was “I”.

Take `CCC1(CCC(C)C)C(=O)[N-]C(=O)NC1=O.CCC1(CCC(C)C)C(=O)[N-]C(=O)NC1=O.[Cu+2].c1c[nH]cn1.c1c[nH]cn1` [Cu(II)(Amobarbital)2 (imidazole)2]: the “Lowest effective dose, Metrazol (Phase I)” value in assay [2] (IP, challenge time 30 min) was 300 milligrams per kilogram of bod; in assay [2] (IP, challenge time 4 hrs), “I”; in assay [2] (SC, challenge time 30 min), “I”; in assay [2] (SC, challenge time 4 hrs) it was 600 milligrams per kilogram of bod. Also, the “Lowest effective dose, MES (Phase I)” value in assay [1] (setting [3]) is reported as 600 milligrams per kilogram of bod; in assay [1] (setting [4]), “I”; in assay [1] (setting [5]) it was “I”; in assay [1] (setting [6]) it was “I”.

For `CCCC(C)C1(CC)C(=O)N=C([S-])NC1=O.CCCC(C)C1(CC)C(=O)N=C([S-])NC1=O.O.O.[Cu+2]` (centres unmarked) [Cu(II)(S--thiopental)2 (H2 O)2], the “Lowest effective dose, Metrazol (Phase I)” value in assay [2] (IP, challenge time 30 min) is on record as “I”; in assay [2] (IP, challenge time 4 hrs), “I”; in assay [2] (SC, challenge time 30 min), “I”; in assay [2] (SC, challenge time 4 hrs) it was “I”. Also, the “Lowest effective dose, MES (Phase I)” value in assay [1] (setting [3]), in assay [1] (setting [4]), in assay [1] (setting [5]) and in assay [1] (setting [6]) was “I” in each case.

As for `CCC1(CCC(C)C)C(=O)[N-]C(=O)NC1=O.CCC1(CCC(C)C)C(=O)[N-]C(=O)NC1=O.[Cu+2].c1ccncc1.c1ccncc1` [Cu(II)(Amobarbital)2 (pyridine)2], the “Lowest effective dose, Metrazol (Phase I)” value in assay [2] (IP, challenge time 30 min) is 100 milligrams per kilogram of bod; in assay [2] (IP, challenge time 4 hrs), 30 milligrams per kilogram of bod; in assay [2] (SC, challenge time 30 min), 600 milligrams per kilogram of bod; in assay [2] (SC, challenge time 4 hrs), 600 milligrams per kilogram of bod. In addition, the “Lowest effective dose, MES (Phase I)” value in assay [1] (setting [3]) was 300 milligrams per kilogram of bod; in assay [1] (setting [4]), 300 milligrams per kilogram of bod; in assay [1] (setting [5]), “I”; in assay [1] (setting [6]) it was 100 milligrams per kilogram of bod.

For the compound `O=C([O-])c1cc(Cl)ccc1O.O=C([O-])c1cc(Cl)ccc1O.[Cu+2]` [Cu(II)(5-chlorosalicylate)2], in assay [1] (Table II, IP), the “Anticonvulsant activity, Maximal Electroshock (Phase I)” value is on record as “I”.

As to Cu(II)(L-cystinate)2 H2 O, in assay [2], the “Protection” value is given as “effective against the Metrazol-inducedseizure at all three doses studied but only at the shorter time period”.

Consider `NC(=O)N1c2ccccc2C=Cc2ccccc21` [Carbamazepine, reference compound], for which the ED50 in assay [1] (Mus musculus, Table X, IP, at time of peak activity, read-out: ED50 for inhibition of seizures, MES (Phase II)) was 9 mg/kg.

As for “Cu(II)n (Phenobarbital)n (pyridine)2n (H2 O)3n”, the “Lowest effective dose, Metrazol (Phase I)” value in assay [2] (SC, challenge time 30 min) is listed as 30 milligrams per kilogram of bod; in assay [2] (SC, challenge time 4 hrs) it was 30 milligrams per kilogram of bod.

For `N[C@@H](Cc1ccccc1)C(=O)[O-].N[C@@H](Cc1ccccc1)C(=O)[O-].[Cu+2]` [Cu(II)(L-phenylalaninate)2], the “Protection” value in assay [2] was “effective against the Metrazol-inducedseizure at all three doses studied but only at the shorter time period”.

Take `C[C@@H](O)[C@H](N)C(=O)[O-].C[C@H](N)C(=O)[O-].[Cu+2]` [Cu(II)(L-threoninate)(L-alaninate)]: in assay [2], the “Protection” value was “effective against the Metrazol-induced seizure at all doses studied and at both time intervals, 30 minutes and 4 hours”.

For the origin of these results see patent US4758555A, “Method for treating convulsions and epilepsy with organic copper compounds” (priority 1986, dated 1988).
